# Laboratory results published in paper PMC5218480 (PLoS ONE, 2017).
# Tested on: MV-4-11 cells
# Test: Gene expression microarray analysis (Affymetrix PrimeView) and GSEA
# Format: cell-based, human
# Set-up: RFU PODN (11730768_x_at) / Fold change /veh PODN (11730768_x_at) / RFU LINC00158 (11744669_a_at) / Fold change /veh LINC00158 (11744669_a_at) / RFU DUSP10 (11751237_a_at) / Fold change /veh DUSP10 (11751237_a_at) / RFU ID3 (11757404_x_at) / Fold change /veh ID3 (11757404_x_at) / RFU PLEKHG5 (11737974_s_at) / Fold change /veh PLEKHG5 (11737974_s_at) / RFU LRRC4B (11730491_at) / Fold change /veh LRRC4B (11730491_at) / RFU GIMAP4 (11747438_a_at) / Fold change /veh GIMAP4 (11747438_a_at) / RFU KRT8 (11758183_x_at) / Fold change /veh KRT8 (11758183_x_at) / RFU CNN1 (11734310_a_at) / Fold change /veh CNN1 (11734310_a_at) / RFU VPS37D (11726825_at) / Fold change /veh VPS37D (11726825_at) / RFU C10orf10 (11716522_x_at) / Fold change /veh C10orf10 (11716522_x_at) / RFU KIR2DL2 /// KIR2DL4 /// KIR2DL5A /// KIR2DL5B /// KIR2DS1 /// KIR2DS2 /// KIR2DS3 /// KIR2DS4 /// KIR3DL3 /// KIR3DL3 /// KIR3DS1 (11738374_at) / Fold change /veh KIR2DL2 /// KIR2DL4 /// KIR2DL5A /// KIR2DL5B /// KIR2DS1 /// KIR2DS2 /// KIR2DS3 /// KIR2DS4 /// KIR3DL3 /// KIR3DL3 /// KIR3DS1 (11738374_at) / RFU C1QL1 (11718748_at) / Fold change /veh C1QL1 (11718748_at) / RFU TMPRSS4 (11747572_a_at) / Fold change /veh TMPRSS4 (11747572_a_at) / RFU HAMP (11756126_x_at) / Fold change /veh HAMP (11756126_x_at) / RFU RNFT2 (11725882_a_at) / Fold change /veh RNFT2 (11725882_a_at) / RFU NR4A2 (11747474_a_at) / Fold change /veh NR4A2 (11747474_a_at) / RFU ABCC12 (11746883_a_at) / Fold change /veh ABCC12 (11746883_a_at) / RFU TMEM136 (11760407_x_at) / Fold change /veh TMEM136 (11760407_x_at) / RFU CLDN22 /// WWC2 (11732394_at) / Fold change /veh CLDN22 /// WWC2 (11732394_at) / RFU HLA-DPB1 (11760878_x_at) / Fold change /veh HLA-DPB1 (11760878_x_at) / RFU SPINT1 (11716480_a_at) / Fold change /veh SPINT1 (11716480_a_at) / RFU GAP43 (11754022_s_at) / Fold change /veh GAP43 (11754022_s_at) / RFU A4GNT (11735810_at) / Fold change /veh A4GNT (11735810_at) / RFU PRB3 (11715151_x_at) / Fold change /veh PRB3 (11715151_x_at) / RFU TUBB4B (11761932_at) / Fold change /veh TUBB4B (11761932_at) / RFU CAPN14 (11732068_a_at) / Fold change /veh CAPN14 (11732068_a_at) / RFU TMCC2 (11721928_a_at) / Fold change /veh TMCC2 (11721928_a_at) / RFU IRGQ (11745062_a_at) / Fold change /veh IRGQ (11745062_a_at) / RFU FAM174B (11720279_a_at) / Fold change /veh FAM174B (11720279_a_at) / RFU TMPRSS4 (11748680_a_at) / Fold change /veh TMPRSS4 (11748680_a_at) / RFU FAM212B (11763350_a_at) / Fold change /veh FAM212B (11763350_a_at) / RFU PLEKHG5 (11743358_a_at) / Fold change /veh PLEKHG5 (11743358_a_at) / RFU ZSCAN30 (11745921_a_at) / Fold change /veh ZSCAN30 (11745921_a_at) / RFU CMKLR1 (11741424_a_at) / Fold change /veh CMKLR1 (11741424_a_at) / RFU LOC101060620 /// MAPK8IP1 (11723275_at) / Fold change /veh LOC101060620 /// MAPK8IP1 (11723275_at) / RFU SPTSSB (11747773_x_at) / Fold change /veh SPTSSB (11747773_x_at) / RFU PRSS12 (11739890_at) / Fold change /veh PRSS12 (11739890_at) / RFU BIN1 (11741810_x_at) / Fold change /veh BIN1 (11741810_x_at) / RFU WNT11 (11732464_a_at) / Fold change /veh WNT11 (11732464_a_at) / RFU C10orf10 (11716521_a_at) / Fold change /veh C10orf10 (11716521_a_at) / RFU C5orf56 (11738089_at) / Fold change /veh C5orf56 (11738089_at) / RFU CYB561 (11721691_x_at) / Fold change /veh CYB561 (11721691_x_at) / RFU ANKRD19P (11752326_a_at) / Fold change /veh ANKRD19P (11752326_a_at) / RFU OR2T12 /// OR2T33 /// OR2T8 (11738714_s_at) / Fold change /veh OR2T12 /// OR2T33 /// OR2T8 (11738714_s_at) / RFU VCAN (11748164_a_at) / Fold change /veh VCAN (11748164_a_at) / RFU JSRP1 (11732532_at) / Fold change /veh JSRP1 (11732532_at) / RFU KRTAP10-11 (11738290_x_at) / Fold change /veh KRTAP10-11 (11738290_x_at) / RFU MYO3A (11730013_a_at) / Fold change /veh MYO3A (11730013_a_at) / RFU EBF3 (11725865_a_at) / Fold change /veh EBF3 (11725865_a_at) / RFU CAMK2N1 (11719241_x_at) / Fold change /veh CAMK2N1 (11719241_x_at) / RFU C5orf56 (11738088_a_at) / Fold change /veh C5orf56 (11738088_a_at) / RFU OLFML3 (11715873_a_at) / Fold change /veh OLFML3 (11715873_a_at) / RFU LOC100653217 /// NTM (11731650_a_at) / Fold change /veh LOC100653217 /// NTM (11731650_a_at) / RFU MAPK11 (11762145_a_at) / Fold change /veh MAPK11 (11762145_a_at) / RFU FIZ1 (11724087_x_at) / Fold change /veh FIZ1 (11724087_x_at) / RFU OASL (11726364_x_at) / Fold change /veh OASL (11726364_x_at) / RFU SOX15 (11748057_x_at) / Fold change /veh SOX15 (11748057_x_at) / RFU CD79A (11719716_a_at) / Fold change /veh CD79A (11719716_a_at) / RFU HIST1H1D (11736915_at) / Fold change /veh HIST1H1D (11736915_at) / RFU CASKIN2 (11723855_a_at) / Fold change /veh CASKIN2 (11723855_a_at) / RFU LOC730098 (11760151_x_at) / Fold change /veh LOC730098 (11760151_x_at) / RFU OR4N2 (11742367_at) / Fold change /veh OR4N2 (11742367_at) / RFU PRRT2 (11749266_a_at) / Fold change /veh PRRT2 (11749266_a_at) / RFU SNX32 (11753110_a_at) / Fold change /veh SNX32 (11753110_a_at) / RFU CDHR5 (11726645_a_at) / Fold change /veh CDHR5 (11726645_a_at) / RFU RCAN1 (11760418_a_at) / Fold change /veh RCAN1 (11760418_a_at) / RFU FAM167A (11723789_a_at) / Fold change /veh FAM167A (11723789_a_at) / RFU FAM26E (11764081_at) / Fold change /veh FAM26E (11764081_at) / RFU ISYNA1 (11749810_s_at) / Fold change /veh ISYNA1 (11749810_s_at) / RFU ACY1 (11761880_at) / Fold change /veh ACY1 (11761880_at) / RFU 11764098_at / Fold change /veh 11764098_at / RFU SAMD14 (11745864_x_at) / Fold change /veh SAMD14 (11745864_x_at) / RFU NPB (11741838_a_at) / Fold change /veh NPB (11741838_a_at) / RFU TMPRSS6 (11731388_a_at) / Fold change /veh TMPRSS6 (11731388_a_at) / RFU KRTAP10-2 (11738614_at) / Fold change /veh KRTAP10-2 (11738614_at) / RFU ARHGAP8 /// PRR5-ARHGAP8 (11727945_x_at) / Fold change /veh ARHGAP8 /// PRR5-ARHGAP8 (11727945_x_at) / RFU KRTAP5-7 /// NADSYN1 (11734609_at) / Fold change /veh KRTAP5-7 /// NADSYN1 (11734609_at) / RFU RASL12 (11751679_a_at) / Fold change /veh RASL12 (11751679_a_at) / RFU CDKN2B (11736163_a_at) / Fold change /veh CDKN2B (11736163_a_at) / RFU PRF1 (11729649_at) / Fold change /veh PRF1 (11729649_at) / RFU, ZNF638 /// ZNF638-IT1 / Fold change vs veh, ZNF638 /// ZNF638-IT1 / RFU, PANK3 / Fold change vs veh, PANK3 / RFU, SH3YL1 / Fold change vs veh, SH3YL1 / RFU, ZEB2 / Fold change vs veh, ZEB2 / RFU, NRIP1 / Fold change vs veh, NRIP1 / RFU, PTTG1IP / Fold change vs veh, PTTG1IP / RFU, CAPN2 / Fold change vs veh, CAPN2 / RFU, MED14 / Fold change vs veh, MED14 / RFU, SNORA58 / Fold change vs veh, SNORA58 / RFU, C1orf63 / Fold change vs veh, C1orf63 / RFU, LRRFIP1 / Fold change vs veh, LRRFIP1 / RFU, NDUFAF7 / Fold change vs veh, NDUFAF7 / RFU, SLC12A2 / Fold change vs veh, SLC12A2 / RFU, IBTK / Fold change vs veh, IBTK / RFU, ESF1 / Fold change vs veh, ESF1 / Fold change vs veh, TMEM50B / RFU, TAOK1 / Fold change vs veh, TAOK1 / RFU, ACBD3 / Fold change vs veh, ACBD3 / RFU, TMA16 / Fold change vs veh, TMA16 / RFU, RWDD3 / Fold change vs veh, RWDD3 / RFU, BCAT1 / Fold change vs veh, BCAT1 / RFU, EDEM3 / Fold change vs veh, EDEM3 / RFU, TMEM33 / Fold change vs veh, TMEM33 / RFU, WDR75 / Fold change vs veh, WDR75 / RFU, AHCTF1 / Fold change vs veh, AHCTF1 / RFU, TFRC / Fold change vs veh, TFRC / RFU, ZDHHC17 / Fold change vs veh, ZDHHC17 / RFU, NOM1 / Fold change vs veh, NOM1 / RFU, ARL8B / Fold change vs veh, ARL8B / RFU, ZBTB11 / Fold change vs veh, ZBTB11 / RFU, TAMM41 / Fold change vs veh, TAMM41 / RFU, KIAA1704 /// LOC100996395 / Fold change vs veh, KIAA1704 /// LOC100996395 / RFU, ING1 / Fold change vs veh, ING1 / RFU, TRMT61B / Fold change vs veh, TRMT61B / RFU, FUBP3 / Fold change vs veh, FUBP3 / RFU, TP53 / Fold change vs veh, TP53 / RFU, TNKS2 / Fold change vs veh, TNKS2 / RFU, ZFP14 / Fold change vs veh, ZFP14 / RFU, ACTR2 / Fold change vs veh, ACTR2 / RFU, PPP3R1 / Fold change vs veh, PPP3R1 / RFU, PIK3R1 / Fold change vs veh, PIK3R1 / RFU, HNRNPA1 / Fold change vs veh, HNRNPA1 / RFU, RNF170 / Fold change vs veh, RNF170 / RFU, ZNF28 / Fold change vs veh, ZNF28 / RFU, RNGTT / Fold change vs veh, RNGTT / RFU, OGT / Fold change vs veh, OGT / RFU, BRD1 / Fold change vs veh, BRD1 / RFU, MARS / Fold change vs veh, MARS / RFU, ZNF655 / Fold change vs veh, ZNF655 / RFU, FAHD1 / Fold change vs veh, FAHD1 / RFU, BDP1 / Fold change vs veh, BDP1 / RFU, LRRCC1 / Fold change vs veh, LRRCC1 / RFU, ARID1A / Fold change vs veh, ARID1A / RFU, ZNF146 / Fold change vs veh, ZNF146 / RFU, ZNF330 / Fold change vs veh, ZNF330 / RFU, GPN3 / Fold change vs veh, GPN3 / RFU, C9orf123 / Fold change vs veh, C9orf123 / RFU, N4BP2L2 / Fold change vs veh, N4BP2L2 / RFU, ARFIP1 / Fold change vs veh, ARFIP1 / RFU, FAM179B / Fold change vs veh, FAM179B / RFU, BCL10 / Fold change vs veh, BCL10 / RFU, UHRF1BP1L / Fold change vs veh, UHRF1BP1L / RFU, BET1 / Fold change vs veh, BET1 / RFU, CNOT2 / Fold change vs veh, CNOT2 / RFU, ZNF268 / Fold change vs veh, ZNF268 / Fold change vs veh, ZNF507 / RFU, DGCR2 / Fold change vs veh, DGCR2 / RFU, WDSUB1 / Fold change vs veh, WDSUB1 / Fold change vs veh, HSP90B1 /// MIR3652 / RFU, ADSS / Fold change vs veh, ADSS / RFU, GK / Fold change vs veh, GK / RFU, ZNF148 / Fold change vs veh, ZNF148 / RFU, TAF9 / Fold change vs veh, TAF9 / RFU, SLC1A5 / Fold change vs veh, SLC1A5 / RFU, SLMO2 / Fold change vs veh, SLMO2 / RFU, ABCC4 / Fold change vs veh, ABCC4 / RFU, LOC101060439 /// RAP1B / Fold change vs veh, LOC101060439 /// RAP1B / RFU, RFX7 / Fold change vs veh, RFX7 / RFU, GTPBP10 / Fold change vs veh, GTPBP10 / RFU, CNEP1R1 / Fold change vs veh, CNEP1R1 / RFU, BIVM-ERCC5 /// ERCC5 / Fold change vs veh, BIVM-ERCC5 /// ERCC5 / RFU, ILF3 / Fold change vs veh, ILF3 / RFU 11762660_at / Fold change /veh 11762660_at / RFU VCAN (11757783_s_at) / Fold change /veh VCAN (11757783_s_at) / RFU DDX43 (11728927_at) / Fold change /veh DDX43 (11728927_at) / RFU KRT8 (11758188_x_at) / Fold change /veh KRT8 (11758188_x_at) / RFU NKD1 (11759106_at) / Fold change /veh NKD1 (11759106_at) / RFU SRD5A1 (11742802_a_at) / Fold change /veh SRD5A1 (11742802_a_at) / RFU TPSAB1 /// TPSB2 (11721975_s_at) / Fold change /veh TPSAB1 /// TPSB2 (11721975_s_at) / RFU GSTM3 (11746129_a_at) / Fold change /veh GSTM3 (11746129_a_at) / RFU IL23R (11737362_x_at) / Fold change /veh IL23R (11737362_x_at) / RFU TMEM51 (11727254_a_at) / Fold change /veh TMEM51 (11727254_a_at) / RFU PIWIL2 (11732686_x_at) / Fold change /veh PIWIL2 (11732686_x_at) / RFU ORM1 (11744905_x_at) / Fold change /veh ORM1 (11744905_x_at) / RFU CCDC152 (11743942_at) / Fold change /veh CCDC152 (11743942_at) / RFU ECM1 (11717891_a_at) / Fold change /veh ECM1 (11717891_a_at) / RFU IL23R (11748794_a_at) / Fold change /veh IL23R (11748794_a_at) / RFU TNFAIP8L3 (11732012_x_at) / Fold change /veh TNFAIP8L3 (11732012_x_at) / RFU MBOAT4 (11741988_at) / Fold change /veh MBOAT4 (11741988_at) / RFU 11764193_at / Fold change /veh 11764193_at / RFU TMEM53 (11763286_at) / Fold change /veh TMEM53 (11763286_at) / RFU MAGEB2 (11727129_at) / Fold change /veh MAGEB2 (11727129_at) / RFU TMEM200A (11744735_a_at) / Fold change /veh TMEM200A (11744735_a_at) / RFU CCDC152 (11751479_a_at) / Fold change /veh CCDC152 (11751479_a_at) / RFU FAM211A (11726209_a_at) / Fold change /veh FAM211A (11726209_a_at) / RFU RGS16 (11746705_a_at) / Fold change /veh RGS16 (11746705_a_at) / RFU VCAN (11755009_s_at) / Fold change /veh VCAN (11755009_s_at) / RFU RHOB (11743442_s_at) / Fold change /veh RHOB (11743442_s_at) / RFU RGS16 (11720943_a_at) / Fold change /veh RGS16 (11720943_a_at) / RFU RGS16 (11720944_at) / Fold change /veh RGS16 (11720944_at) / RFU, VPS4B / Fold change vs veh, VPS4B / RFU, CREB1 / Fold change vs veh, CREB1 / RFU, DNAJC13 / Fold change vs veh, DNAJC13 / RFU, GNAQ / Fold change vs veh, GNAQ / RFU, CDK5R1 / Fold change vs veh, CDK5R1 / RFU, ZRANB3 / Fold change vs veh, ZRANB3 / RFU, CUL4A / Fold change vs veh, CUL4A / RFU, CCNY / Fold change vs veh, CCNY / RFU, UFL1 / Fold change vs veh, UFL1 / RFU, COG3 / Fold change vs veh, COG3 / RFU, DIAPH2 / Fold change vs veh, DIAPH2 / RFU, SKA2 / Fold change vs veh, SKA2 / RFU, AFF3 / Fold change vs veh, AFF3 / RFU, LMF1 / Fold change vs veh, LMF1 / RFU, IPO11 / Fold change vs veh, IPO11 / RFU, DFFB / Fold change vs veh, DFFB / RFU, FOXP1 / Fold change vs veh, FOXP1 / RFU, CARD8 / Fold change vs veh, CARD8 / RFU, STRN3 / Fold change vs veh, STRN3 / RFU, ADK / Fold change vs veh, ADK / RFU, RASSF2 / Fold change vs veh, RASSF2 / RFU, WIPF1 / Fold change vs veh, WIPF1 / RFU, LARP1B / Fold change vs veh, LARP1B / RFU, RASA1 / Fold change vs veh, RASA1 / RFU, RB1 / Fold change vs veh, RB1 / RFU, PPFIA1 / Fold change vs veh, PPFIA1 / RFU, MAT2A / Fold change vs veh, MAT2A / RFU, CCT5 / Fold change vs veh, CCT5 / RFU, WDR92 / Fold change vs veh, WDR92 / RFU, CUX1 / Fold change vs veh, CUX1 / RFU, TTC7A / Fold change vs veh, TTC7A / RFU, TMEM135 / Fold change vs veh, TMEM135 / RFU, DEPTOR / Fold change vs veh, DEPTOR / RFU, CPM / Fold change vs veh, CPM / RFU, DNAJB6 / Fold change vs veh, DNAJB6 / RFU, CACNA2D3 / Fold change vs veh, CACNA2D3 / RFU, DTX4 / Fold change vs veh, DTX4 / RFU, TFCP2 / Fold change vs veh, TFCP2 / RFU, GMCL1 /// GMCL1P1 / Fold change vs veh, GMCL1 /// GMCL1P1 / RFU, AEBP2 / Fold change vs veh, AEBP2 / RFU, SNHG1 /// SNORD22 /// SNORD25 /// SNORD26 /// SNORD27 /// SNORD28 /// SNORD29 /// SNORD31 / Fold change vs veh, SNHG1 /// SNORD22 /// SNORD25 /// SNORD26 /// SNORD27 /// SNORD28 /// SNORD29 /// SNORD31 / Fold change (Aza/veh), C12orf56 (ProbeSet 11735607_a_at) / Fold change (ACY-1035/veh), C12orf56 (ProbeSet 11735607_a_at) / Fold change (Aza/veh), FGFR1OP (ProbeSet 11751329_s_at) / Fold change (ACY-1035/veh), FGFR1OP (ProbeSet 11751329_s_at) / Fold change (Aza/veh), VPS36 (ProbeSet 11739960_a_at) / Fold change (ACY-1035/veh), VPS36 (ProbeSet 11739960_a_at) / RFU SYPL1 (11715823_x_at) / Fold change /veh SYPL1 (11715823_x_at) / RFU IGFBP7 (11715501_s_at) / Fold change /veh IGFBP7 (11715501_s_at) / RFU REEP3 (11722064_at) / Fold change /veh REEP3 (11722064_at) / RFU IGLL1 (11728026_x_at) / Fold change /veh IGLL1 (11728026_x_at): dose or concentration left out as unconfirmed
# Conditions: ProbeSet 11740781_a_at; LIST B
compound,measurement,value
Nc1ncn([C@@H]2O[C@H](CO)[C@@H](O)[C@H]2O)c(=O)n1 [azacitidine],"RFU, ILF3",260.31 RFU
